Earlier results as cited in patent US20060168671A1, “Injection of caprine sperm factor (cSF), phospholipase C zeta (PLCzeta) and adenophostin A as alternative methods of activation during nuclear transfer in the caprine species” (priority 2005, published 2006).

Assays:
[1] = test system: IP3R; conditions: relative to IP3; Takahashi et al., 1994
[2] = test system: MII mouse eggs; conditions: Jellerette et al., 2000

In the case of Nc1ncnc2c1ncn2[C@@H]1O[C@H](CO)[C@@H](O[C@H]2O[C@H](CO)[C@@H](OP(=O)(O)O)[C@H](OP(=O)(O)O)[C@H]2O)[C@H]1OP(=O)(O)O [Adenophostin A], the “affinity to IP3R greater than IP3 itself” value [1] is given as 10-100 fold, the “[Ca2+]i oscillations” value [2] is given as “induces fertilization-like oscillations” and the activation rates [2] is given as “high activation rates”.
